Test results published in the supplement of paper PMC11451515.

System: P12-Ichikawa
Assay: cell viability relative to DMSO control; higher = less cytotoxic
Details: 48 h
Outline: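 Viability, reported as a per-plate percentage of DMSO wells with cell-free wells as background, came from CellTiter-Glo One luminescence. Reading took place after 48 h at 37°C. Before that, NOMO1 or SEM (500 cells/well) or P12-Ichikawa (1000 cells/well) leukemia cells, adapted for at least four passages in each medium, were seeded in 1536-well plates (5 μl) and pin-dosed with library compounds in DMSO, 47 μM to 0.79 nM over 11 threefold points.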

[1] = HPLM + 10% dialyzed FBS, 0.000781 µM
[2] = HPLM + 10% dialyzed FBS, 0.00234 µM
[3] = HPLM + 10% dialyzed FBS, 0.00702 µM
[4] = HPLM + 10% dialyzed FBS, 0.0211 µM
[5] = HPLM + 10% dialyzed FBS, 0.0632 µM
[6] = HPLM + 10% dialyzed FBS, 0.19 µM
[7] = HPLM + 10% dialyzed FBS, 0.569 µM
[8] = HPLM + 10% dialyzed FBS, 1.71 µM
[9] = HPLM + 10% dialyzed FBS, 5.12 µM
[10] = HPLM + 10% dialyzed FBS, 15.4 µM
[11] = HPLM + 10% dialyzed FBS, 46.1 µM
[12] = RPMI 5 mM glucose + 10% FBS, 0.000781 µM
[13] = RPMI 5 mM glucose + 10% FBS, 0.00234 µM
[14] = RPMI 5 mM glucose + 10% FBS, 0.00702 µM
[15] = RPMI 5 mM glucose + 10% FBS, 0.0211 µM
[16] = RPMI 5 mM glucose + 10% FBS, 0.0632 µM
[17] = RPMI 5 mM glucose + 10% FBS, 0.19 µM
[18] = RPMI 5 mM glucose + 10% FBS, 0.569 µM
[19] = RPMI 5 mM glucose + 10% FBS, 1.71 µM
[20] = RPMI 5 mM glucose + 10% FBS, 5.12 µM
[21] = RPMI 5 mM glucose + 10% FBS, 15.4 µM
[22] = RPMI 5 mM glucose + 10% FBS, 46.1 µM
[23] = RPMI 5 mM glucose + 10% dialyzed FBS, 0.000781 µM
[24] = RPMI 5 mM glucose + 10% dialyzed FBS, 0.00234 µM
[25] = RPMI 5 mM glucose + 10% dialyzed FBS, 0.00702 µM
[26] = RPMI 5 mM glucose + 10% dialyzed FBS, 0.0211 µM
[27] = RPMI 5 mM glucose + 10% dialyzed FBS, 0.0632 µM
[28] = RPMI 5 mM glucose + 10% dialyzed FBS, 0.19 µM
[29] = RPMI 5 mM glucose + 10% dialyzed FBS, 0.569 µM
[30] = RPMI 5 mM glucose + 10% dialyzed FBS, 1.71 µM
[31] = RPMI 5 mM glucose + 10% dialyzed FBS, 5.12 µM
[32] = RPMI 5 mM glucose + 10% dialyzed FBS, 15.4 µM
[33] = RPMI 5 mM glucose + 10% dialyzed FBS, 46.1 µM

Compound	cell viability [1] [%]	cell viability [2] [%]	cell viability [3] [%]	cell viability [4] [%]	cell viability [5] [%]	cell viability [6] [%]	cell viability [7] [%]	cell viability [8] [%]	cell viability [9] [%]	cell viability [10] [%]	cell viability [11] [%]	cell viability [12] [%]	cell viability [13] [%]	cell viability [14] [%]	cell viability [15] [%]	cell viability [16] [%]	cell viability [17] [%]	cell viability [18] [%]	cell viability [19] [%]	cell viability [20] [%]	cell viability [21] [%]	cell viability [22] [%]	cell viability [23] [%]	cell viability [24] [%]	cell viability [25] [%]	cell viability [26] [%]	cell viability [27] [%]	cell viability [28] [%]	cell viability [29] [%]	cell viability [30] [%]	cell viability [31] [%]	cell viability [32] [%]	cell viability [33] [%]
Cc1nc(NC(=O)N2CCC[C@H]2C(N)=O)sc1-c1ccnc(C(C)(C)C(F)(F)F)c1	96.4	100	97.1	93.3	97.7	92.4	89.8	87.6	72.2	62.9	83.2	89.4	89.2	95.4	93.7	90.6	86.9	79.6	76.2	57.5	48.3	77.8	97.9	92.4	94.4	91.8	93.4	81.5	86.7	78.9	63.7	51.6	83.3
Cl.Cl.Cl.O[C@@H](COc1cccc2ncccc12)CN1CCN([C@@H]2c3ccccc3[C@@H]3[C@H](c4ccccc42)C3(F)F)CC1	94.8	94.5	88.4	89.7	90.5	92.9	84	83.8	81.8	84.5	79.3	89.1	79.1	77.9	84	88.5	87	71	81.6	78.4	79.8	84.6	91.8	84.3	86.3	86.7	81.6	84.6	84.4	77.8	78.6	78.4	76.3
O=C(NOCC(O)CO)c1cc(Br)c(F)c(F)c1Nc1ccc(I)cc1F (configuration not stated)	82.9	84.2	81.7	87.8	83.8	74.8	74.4	68.2	64.2	73.9	52.3	74.6	87.6	79	73.8	80.3	67.9	63.8	62.5	56.2	66.4	54.5	76.2	79.2	73.9	81.9	74.3	71.2	65.6	71.8	66.1	76.6	58.7
C=C(C)[C@@H]1CC[C@]2(C(=O)O)CC[C@]3(C)[C@H](CC[C@@H]4[C@@]5(C)CC[C@H](O)C(C)(C)[C@@H]5CC[C@]43C)[C@@H]12	111	123	120	114	116	111	109	103	99.9	99.1	97.3	108	116	114	109	116	107	119	106	97.8	98.5	103	114	121	120	110	108	102	111	100	95.1	94.3	87.3
